Experimental data from ChEMBL document CHEMBL4837265 (ACS Med Chem Lett, 2021).
The source made the active and inactive calls. The rule behind the calls is not given here.

Legend:
Type in all cases: cell-based
Glucocorticoid receptor [1] = target: T1, Glucocorticoid receptor (Rattus norvegicus, UniProt P06536); test: Agonist activity at glucocorticoid receptor in rat INS-1 832/13 cells transfected with CCL2-promoter luciferase plasmid construct assessed as reduction in IL-1 beta induced inflammation by luciferase reporter gene assay
T1 sequence (P06536 whole entry): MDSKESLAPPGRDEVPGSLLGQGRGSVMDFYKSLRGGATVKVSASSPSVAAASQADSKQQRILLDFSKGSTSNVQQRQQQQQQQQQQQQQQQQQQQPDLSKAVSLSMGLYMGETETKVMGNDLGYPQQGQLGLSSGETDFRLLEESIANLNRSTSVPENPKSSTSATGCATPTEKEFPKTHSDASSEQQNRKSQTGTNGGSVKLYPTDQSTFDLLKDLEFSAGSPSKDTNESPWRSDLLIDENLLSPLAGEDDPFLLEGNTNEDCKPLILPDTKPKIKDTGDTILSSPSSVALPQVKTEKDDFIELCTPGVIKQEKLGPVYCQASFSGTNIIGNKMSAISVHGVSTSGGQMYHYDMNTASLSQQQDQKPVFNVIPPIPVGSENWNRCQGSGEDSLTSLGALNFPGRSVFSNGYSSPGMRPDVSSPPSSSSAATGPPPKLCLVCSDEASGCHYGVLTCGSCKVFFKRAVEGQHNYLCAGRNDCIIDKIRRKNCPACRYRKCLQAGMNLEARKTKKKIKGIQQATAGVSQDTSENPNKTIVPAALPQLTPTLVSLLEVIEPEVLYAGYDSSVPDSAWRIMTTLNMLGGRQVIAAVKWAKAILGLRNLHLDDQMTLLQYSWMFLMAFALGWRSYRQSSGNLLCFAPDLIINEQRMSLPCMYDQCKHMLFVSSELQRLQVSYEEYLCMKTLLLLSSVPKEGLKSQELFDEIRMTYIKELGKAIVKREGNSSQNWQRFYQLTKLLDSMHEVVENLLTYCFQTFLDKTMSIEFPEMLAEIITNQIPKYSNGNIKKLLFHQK

Glucocorticoid receptor [2] = target: T1, Glucocorticoid receptor; test: Agonist activity at glucocorticoid receptor in rat INS-1 832/13 cells transfected with 3XGRE-promoter luciferase plasmid construct assessed as induction of receptor transactivation by luciferase reporter gene assay
[3] = target: T2, Glucocorticoid receptor (Rattus norvegicus) (UniProt P06536); test: Agonist activity at glucocorticoid receptor in rat INS-1 832/13 cells assessed as inhibition of glucose-stimulated insulin secretion at 100 nM incubated for 18 hrs by ELISA
T2 sequence (whole entry): T1 sequence (P06536 whole entry)

IC50 (Glucocorticoid receptor [1]) | EC50 (Glucocorticoid receptor [2]) | inhibition [3] | inhibition ([3]; filed as agonist) | Structure (SMILES)
501 nM | 10000 nM | – | – | COc1ccc(-n2ncc3c2C=C2CCC[C@H]([C@@H](O)c4ccsc4)[C@@]2(C)C3)cc1
1580 nM | 10000 nM | – | – | COc1ccc(-n2ncc3c2C=C2CCC[C@H](C(C)(O)c4ccsc4)[C@@]2(C)C3)cc1 (single isomer, unassigned)
100 nM | 1580 nM | – | – | Cc1ccc(-n2ncc3c2C=C2CCC[C@H](C(C)(O)c4ccsc4)[C@@]2(C)C3)cc1 (single isomer, unassigned)
31.6 nM | 1260 nM | – | – | Cc1ccc(-n2ncc3c2C=C2CCC[C@H](C(C)(O)c4ccccc4)[C@@]2(C)C3)cc1 (single isomer, unassigned)
501 nM | 5010 nM | – | – | COc1ccc(-n2ncc3c2C=C2CCC[C@H](C(C)(O)c4ccccc4)[C@@]2(C)C3)cc1 (single isomer, unassigned)
251 nM | 126 nM | – | – | COc1ccc(-n2ncc3c2C=C2CCC[C@H](C(C)(O)c4ccc(F)cc4)[C@@]2(C)C3)cc1 (single isomer, unassigned)
0.158 nM | 251 nM | – | – | COc1ccc(-n2ncc3c2C=C2CCC[C@H]([C@H](C)O)[C@@]2(C)C3)cc1
2510 nM | 79.4 nM | – | – | COc1ccc(-n2ncc3c2C=C2CCC[C@H](C(C)(C)O)[C@@]2(C)C3)cc1
7.94 nM | 3.98 nM | – | Active | C[C@]12Cc3cnn(-c4ccc(F)cc4)c3C=C1CCC[C@@H]2[C@](C)(O)c1ccccc1
631 nM | 316 nM | – | – | Cc1ccc(-n2ncc3c2C=C2CCC[C@H](C(C)(O)c4ccc(F)cc4)[C@@]2(C)C3)cc1 (single isomer, unassigned)
1260 nM | 10000 nM | – | – | COc1ccc(-n2ncc3c2C=C2CCC[C@H](C(C)(O)c4cc(F)c(F)c(OC)c4)[C@@]2(C)C3)cc1 (single isomer, unassigned)

The remaining lines, values behind:

Structure (SMILES) | IC50 (Glucocorticoid receptor [1]) | EC50 (Glucocorticoid receptor [2]) | inhibition [3] | inhibition ([3]; filed as agonist)
COc1cc([C@@](C)(O)[C@H]2CCCC3=Cc4c(cnn4-c4ccc(F)cc4)C[C@@]32C)cc(F)c1F | 2 nM | 6.31 nM | – | –
COc1ccc(-n2ncc3c2C=C2CCC[C@H]([C@@H](O)c4ccc(F)cc4)[C@@]2(C)C3)cc1 | 79.4 nM | 15800 nM | – | –
C[C@]12Cc3cnn(-c4ccc(F)cc4)c3C=C1CCC[C@@H]2[C@@H](O)c1ccsc1 | 5.01 nM | 126 nM | – | –
CC(C)(O)[C@H]1CCCC2=Cc3c(cnn3-c3ccc(F)cc3)C[C@@]21C | 39.8 nM | 63.1 nM | inactive | –
C[C@]12Cc3cnn(-c4ccc(F)cc4)c3C=C1CCC[C@@H]2[C@@H](O)CC#N | 1580 nM | 2510 nM | – | –
Cc1ccc(-n2ncc3c2C=C2CCC[C@H]([C@@H](O)c4ccsc4)[C@@]2(C)C3)cc1 | 39.8 nM | 10000 nM | – | –
Cc1ccc(-n2ncc3c2C=C2CCC[C@H](C(C)(C)O)[C@@]2(C)C3)cc1 | 63.1 nM | 0.398 nM | – | –
C[C@H](O)[C@H]1CCCC2=Cc3c(cnn3-c3ccc(F)cc3)C[C@@]21C | 6.31 nM | 63.1 nM | inactive | –
CC(C)(C)[C@H](O)[C@H]1CCCC2=Cc3c(cnn3-c3ccc(F)cc3)C[C@@]21C | 0.251 nM | 794 nM | – | –
Cc1ccc(-n2ncc3c2C=C2CCC[C@H]([C@@H](O)c4ccc(F)cc4)[C@@]2(C)C3)cc1 | 251 nM | 31600 nM | – | –
Cc1ccc(-n2ncc3c2C=C2CCC[C@H]([C@H](C)O)[C@@]2(C)C3)cc1 | 0.2 nM | 1580 nM | – | –
COc1cc([C@H](O)[C@H]2CCCC3=Cc4c(cnn4-c4ccc(F)cc4)C[C@@]32C)cc(F)c1F | 15.8 nM | 63.1 nM | – | –
Cc1ccc(-n2ncc3c2C=C2CCC[C@H]([C@@H](O)c4ccccc4)[C@@]2(C)C3)cc1 | 398 nM | 10000 nM | – | –
C[C@]12Cc3cnn(-c4ccc(F)cc4)c3C=C1CCC[C@@H]2[C@](C)(O)c1ccc(F)cc1 | 5.01 nM | 15.8 nM | – | –
C[C@]12Cc3cnn(-c4ccc(F)cc4)c3C=C1CCC[C@@H]2[C@@H](O)c1ccccc1 | 39.8 nM | 100 nM | inactive | –
COc1cc([C@H](O)[C@H]2CCCC3=Cc4c(cnn4-c4ccc(C)cc4)C[C@@]32C)cc(F)c1F | 158 nM | 100000 nM | – | –
COc1ccc(-n2ncc3c2C=C2CCC[C@H]([C@@H](O)c4ccccc4)[C@@]2(C)C3)cc1 | 1260 nM | 10000 nM | – | –
